In patent US20260115237A1, “PROBIOTIC COMPOSITION FOR PREVENTING AND TREATING ANTI-TUMOR TREATMENT-RELATED DIARRHEA AND USE THEREOF” (SICHUAN ANAEROBIC BIOTECHNOLOGY CO., LTD., priority 2023, published 2026):
Entries after “also recorded” stand apart in the source; their conditions may differ.

How the values were obtained:
Assay type in all cases: in vivo
[1] = test system: mice with radiation enteritis; experiment: Diarrhea scoring, radiation enteritis model mice; conditions: 15 mg/kg i.g.
[2] = test system: 5-FU-induced tumor-bearing CID mice; experiment: Diarrhea scoring, 5-FU-induced tumor-bearing CID mice; conditions: 20 mg/kg i.g., tumor-bearing 5-FU model
Description: The bacterial composition used in Examples 10-12 were obtained by mixing five strains at equal CFU concentrations according to the method in Example 9. The CFU of the bacterial composition referred to in Examples 10-12 was the total CFU of the five strains.
(§1) Experimental design: Fifty male BALB/c mice (purchased from Chengdu GemPharmatech Co., Ltd.) were housed in an SPF-grade animal room. CT26 cells (purchased from Beijing BeNa Culture Collection) were subcutaneously inoculated into the right flank of each mouse at a dose of 5×10^6 cells/mouse in a volume of 0.1 mL. When the tumor volume reached about 100-150 mm^3, 42 mice were selected for the subsequent experiment. Based on the tumor volume, the aforementioned 42 mice were randomly divided into 7 groups of 6. The aforementioned 7 groups were as follows: a normal control group (administration regimen: lyoprotectant at 0.2 mL/mouse/day), a model control group (administration regimen: lyoprotectant at 0.2 mL/mouse/day), a positive control loperamide group (administration regimen: loperamide at 20 mg/kg body weight), a Zhengchangsheng group (administration regimen: Bacillus licheniformis at 2×10^8 CFU/mouse/day), a high-dose bacterial composition group (administration regimen: bacterial composition at 1×10^9 CFU/mouse/day), a medium-dose bacterial composition group (administration regimen: bacterial composition at 1×10^8 CFU/mouse/day), and a low-dose bacterial composition group (administration regimen: bacterial composition at 1×10^7 CFU/mouse/day). The day of grouping was designated as day 1 (D1) of the experiment, and intragastric administration was started on day 1 (D1) and performed once daily (QD) for 9 consecutive days. On days 3, 4, 5, and 6 of administration, the normal control group was intraperitoneally injected with normal saline at 0.2 mL/mouse, while the mice in all other groups were intraperitoneally injected with 5-FU (50 mg/kg body weight, 10 mL/kg body weight) for modeling. Compared with the normal control group, the tumor volumes of mice in each group were reduced after 5-FU injection.

[3] = test system: mice with 5-FU-induced diarrhea; experiment: Diarrhea scoring, mice with 5-FU-induced diarrhea (CID model); conditions: 20 mg/kg i.g.; 5-FU model
Experimental: Pdist-1, Lferm-1, Lsali-1, Eaviu-1, and Bbifi-1 were each inoculated into the corresponding bacterial powder preparation medium, and then anaerobically cultured at 37° C. and 90 rpm for 16-24 h to obtain a primary seed solution. Subsequently, the five primary seed solutions were each transferred to the corresponding bacterial powder preparation medium, and then anaerobically cultured at 37° C. and 90 rpm for 10-15 h to obtain a secondary seed solution. The five secondary seed solutions were each pumped into a fermenter containing the corresponding bacterial powder preparation medium using a peristaltic pump, and then subjected to fermentation culture. After the fermentation was stopped, the bacterial cells of each strain were collected by centrifugation. Each corresponding lyoprotectant was added according to a weight ratio of the bacterial sludge to the lyoprotectant of 1:1 to 1:2, and the mixture was well mixed to emulsify the bacterial sludge. Each bacterial sludge was lyophilized and pulverized to obtain a bacterial powder. An appropriate amount of each pulverized bacterial powder was taken for determination of viable count. The bacterial powders of the strains were mixed at equal CFU concentrations based on the viable counts to obtain a bacterial composition powder. Finally, the bacterial composition powder was prepared into a bacterial suspension using normal saline for an animal experiment. The bacterial suspension was diluted with normal saline to obtain bacterial compositions with different bacterial doses. […]
During the experimental period, the body weight of the animals was measured daily, and general observations were recorded (the observation items included but were not limited to the animals' appearance signs, behaviors and activities, respiration, glandular secretion, fecal condition, etc.). The diarrhea condition of each animal after modeling was specifically observed and then recorded and scored. […]

[4] = test system: 5-FU-induced tumor-bearing CID mice; experiment: Blood routine examination, 5-FU-induced tumor-bearing mouse model; conditions: 20 mg/kg i.g.; tumor-bearing 5-FU model
Experimental: as §1
The specific administration regimens are detailed in Table 18. After the end of the experiment, whole blood samples were collected from animals in each group through enucleation, and then subjected to blood routine examination using a five-classification blood cell analyzer for animals (Shenzhen Dymind Biotechnology Co., Ltd.).

[5] = test system: mice with radiation enteritis; experiment: Colorectal pathological examination (HE), radiation enteritis model mice; conditions: 15 mg/kg i.g.
Experimental: (§2) (1) Experimental design: Eighty male C57BL/6 mice (purchased from Chengdu GemPharmatech Co., Ltd.) were housed in an SPF-grade animal room. Based on the body weight, the aforementioned mice were randomly divided into 8 groups of 10: a normal control group (administration regimen: normal saline at 0.2 mL/mouse/day), a model control group (administration regimen: lyoprotectant at 0.2 mL/mouse/day), a loperamide group (administration regimen: loperamide at 15 mg/kg body weight), an LGG (Lactobacillus rhamnosus GG, Shaanxi Zelang Biotechnology Co., Ltd.) group (administration regimen: LGG at 1×10^9 CFU/mouse/day), a high-dose bacterial composition group (administration regimen: bacterial composition at 1×10^9 CFU/mouse/day), a medium-high-dose bacterial composition group (administration regimen: bacterial composition at 1×10^8 CFU/mouse/day), a medium-dose bacterial composition group (administration regimen: bacterial composition at 1×10^7 CFU/mouse/day), and a low-dose bacterial composition group (administration regimen: bacterial composition at 1×10^6 CFU/mouse/day). Except for the normal control group, all other groups of mice were subjected to a single whole abdominal X-ray irradiation at a dose of 11.5 Gy. The overall experimental period was 18 days, designated as D1 to D18. Each group was subjected to intragastric administration once daily for 17 consecutive days. Seven days after administration, irradiation was performed on D8, and dissection was conducted on D18.
(§3) During the experimental period, the body weight of the animals was measured daily, and general observations were recorded (the observation items included but were not limited to the animals' appearance signs, behaviors and activities, respiration, glandular secretion, fecal condition, etc.). The diarrhea condition of each animal after irradiation modeling was specifically observed and then recorded and scored. At the end of the experiment, the animals were euthanized, and the colorectal parts were taken, directly fixed in a 10% formaldehyde solution, stained with HE, and then subjected to pathological examination.
(3) Pathological examination of intestinal tissues: The colorectal parts were directly fixed in a 10% formaldehyde solution, stained with HE, and then subjected to pathological examination.

[6] = Body weight, radiation enteritis model mice; conditions: 15 mg/kg i.g.
Experimental: as §2, §3

ZO-1 = experiment: qPCR of colon tissue, 5-FU-induced diarrhea mice; conditions: 20 mg/kg i.g.; 5-FU model
Description: (§4) (1) Experimental design: Ninety-six SPF-grade male Balb/c mice weighing 22-24 g (purchased from Beijing Vital River Laboratory Animal Technology Co., Ltd.) were housed in an SPF-grade animal room. Based on the initial body weight, the mice were randomly divided into 8 groups of 12: a normal control group, a model control group, a positive control loperamide group, a positive control Zhengchangsheng group, a high-dose bacterial composition group, a medium-high-dose bacterial composition group, a medium-dose bacterial composition group, and a low-dose bacterial composition group. The aforementioned 8 groups were intragastrically given normal saline (0.2 mL/mouse/day), lyoprotectant (0.2 mL/mouse/day), loperamide (purchased from Henan Zhongjie Pharmaceutical Co., Ltd., 20 mg/kg body weight/mouse/day), Zhengchangsheng (containing viable Bacillus licheniformis, Northeast Pharmaceutical Group Co., Ltd., 2×10^8 CFU/mouse/day), high-dose bacterial composition (1×10^9 CFU/mouse/day), medium-high-dose bacterial composition (1×10^8 CFU/mouse/day), medium-dose bacterial composition (1×10^7 CFU/mouse/day), and low-dose bacterial composition (1×10^6 CFU/mouse/day), respectively. The overall experimental period was 9 days, designated as D1 to D9. Intragastric administration was performed for 8 consecutive days from D1 to D8. Modeling was started on D3. The mice in the normal control group received abdominal injection of normal saline at 0.2 mL/mouse, while the mice in all other groups were intraperitoneally injected with 5-FU (5-fluorouracil, purchased from Tianjin Pharma Heping (Tianjin) Pharmaceutical Co., Ltd.; specification: 10 mL/vial, 0.25 g/10 mL) at 30 mg/kg body weight for 4 consecutive days to induce a CID mouse model. The mice were dissected on D9.
(§5) During the experimental period, the body weight of the animals was measured daily, and general observations were recorded (the observation items included but were not limited to the animals' appearance signs, behaviors and activities, respiration, glandular secretion, fecal condition, etc.). The diarrhea condition of each animal after modeling was specifically observed and then recorded and scored. After euthanasia was performed at the end of the experiment, middle colon tissue samples were collected for qPCR detection of genes related to inflammatory factors (TNF-α and IL-1β) and tight junction proteins (ZO-1 and Occludin).
(§6) (3) qPCR detection: The total RNA was extracted from colon tissues of the mice in each group using the Trizol method and then reverse-transcribed into cDNA. The cDNA was stored at −20° C. for later use. The relative mRNA transcriptional levels of the genes encoding the pro-inflammatory factors IL-1β and TNF-α, as well as the tight junction proteins ZO-1 and Occludin-1, in the colon of the mice in each group were detected using the qRT-PCR method (the primer sequences are shown in Table 7, and the internal reference gene was β-actin). Reaction program: 1) 95° C. for 3 min; 2) 95° C. for 10 s, 60° C. for 30 s, 95° C. for 15 s, and 60° C. for 1 min, 40 cycles in total; and 3) 95° C. for 10 s. Data analysis was performed using the 2^−ΔΔCT method.

IL-1β = experiment: qPCR of colon tissue, 5-FU-induced diarrhea mice; conditions: 20 mg/kg i.g.; 5-FU model
Description: as §4, §5, §6

TNF-α = experiment: qPCR of colon tissue, 5-FU-induced diarrhea mice; conditions: 20 mg/kg i.g., 5-FU model
Description: as §4, §5, §6

Occludin = experiment: qPCR of colon tissue, 5-FU-induced diarrhea mice; conditions: 20 mg/kg i.g.; 5-FU model
Description: as §4, §5, §6

SMILES: CN(C)C(=O)C(CCN1CCC(O)(c2ccc(Cl)cc2)CC1)(c1ccccc1)c1ccccc1 [Loperamide, loperamide]
- D17 total diarrhea score [1]: 9.80 ± 0.59
- D17 total diarrhea score ([1]; listed as loperamide): significant improvements
- D1-D9 total diarrhea score [2]: 4.67 ± 0.56
- D6 diarrhea score [2]: 0.33 ± 0.21
- D7 diarrhea score [2]: 1.00 ± 0.00
- D8 diarrhea score [2]: 1.33 ± 0.21
- D9 diarrhea score [2]: 2.00 ± 0.37
- D1-D9 total diarrhea score ([2]; listed as loperamide): a significant reduction; also recorded: significantly ameliorate diarrhea
- D8 diarrhea score ([2]; listed as loperamide): a significant reduction
- D8 diarrhea score [3]: 0.08 ± 0.08
- D9 diarrhea score [3]: 0.17 ± 0.11
- Total diarrhea score [3]: 0.25 ± 0.18
- Hematocrit [4]: 43.17 ± 0.99%
- Lymphocyte count [4]: 1.18 ± 0.29 10^9/L
- Platelet count [4]: 216.67 ± 21.53 10^9/L
- Red blood cell count [4]: 9.39 ± 0.23 10^12/L
- White blood cell count [4]: 1.24 ± 0.30 10^9/L
- Goblet cell (colorectal pathological score) [5]: 1.60 ± 0.08
- Inflammatory infiltration (colorectal pathological score) [5]: 2.00 ± 0.00
- Mucosal damage (colorectal pathological score) [5]: 1.60 ± 0.08
- Pathological score (colorectal) [5]: 5.20 ± 0.15
- Pathological score (colorectal) ([5]; listed as loperamide): an improvement trend
- D1 body weight [6]: 23.11 ± 0.20 g
- D14 body weight [6]: 19.79 ± 0.14 g
- D14 body weight change rate [6]: −14.37 ± −10.00%
- D17 body weight [6]: 20.92 ± 0.16 g
- D17 body weight change rate [6]: −9.48 ± −6.38%
- D17 body weight ([6]; listed as loperamide): a trend toward restoring
- ZO-1 relative mRNA transcription level in colon tissue (ZO-1): 0.80
- IL-1β relative mRNA transcription level in colon tissue (IL-1β): 1.26
- TNF-a relative mRNA transcription level in colon tissue (TNF-α): 1.05
- TNF-a relative mRNA transcription level in colon tissue (TNF-α; listed as loperamide): significantly reduce
- Occludin relative mRNA transcription level in colon tissue (Occludin): 0.90
